This experiment concerns the target Muscarinic acetylcholine receptor M2 (Sus scrofa) (UniProt P06199). Nature of the experiment: Binding of [3H]N-methylscopolamine at porcine heart Muscarinic acetylcholine receptor M2 and negative log of the equilibrium dissociation constant was reported.
Sequence of Muscarinic acetylcholine receptor M2 (Sus scrofa) (P06199 whole entry, looked up): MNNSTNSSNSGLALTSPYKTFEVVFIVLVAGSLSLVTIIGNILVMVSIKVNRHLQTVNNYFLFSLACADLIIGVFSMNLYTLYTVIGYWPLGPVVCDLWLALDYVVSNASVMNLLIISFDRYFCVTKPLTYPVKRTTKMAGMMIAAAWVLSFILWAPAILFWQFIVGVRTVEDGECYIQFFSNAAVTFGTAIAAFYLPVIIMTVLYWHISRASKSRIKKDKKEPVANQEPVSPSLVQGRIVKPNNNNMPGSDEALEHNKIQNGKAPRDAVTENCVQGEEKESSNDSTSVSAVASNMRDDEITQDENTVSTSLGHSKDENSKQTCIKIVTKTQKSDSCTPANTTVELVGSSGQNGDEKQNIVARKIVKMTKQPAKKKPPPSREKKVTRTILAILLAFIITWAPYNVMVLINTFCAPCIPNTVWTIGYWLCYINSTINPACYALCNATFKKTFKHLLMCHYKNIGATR
Compound `Cc1ccc2c(c1)C(=O)N(CCC[N+](C)(C)CCCCCC[N+](C)(C)CCCN1C(=O)c3ccccc3C1=O)C2=O` returned a pKA of 6.89. Then `CC(C)(CN1C(=O)c2ccccc2C1=O)C[N+](C)(C)CCCCCC[N+](C)(C)CC(C)(C)CN1C(=O)c2ccccc2C1=O`, with 7.08; and `C[N+](C)(CCCCCC[N+](C)(C)CCCN1C(=O)c2ccccc2C1=O)CCCN1C(=O)c2ccccc2C1=O`, with 6.53; and `CC(C)(CN1C(=O)c2ccccc2C1=O)C[N+](C)(C)CCCCCC[N+](C)(C)CCCN1C(=O)c2ccccc2C1=O`, with 6.9.

For `Cc1ccc2c(c1)C(=O)N(CC(C)(C)C[N+](C)(C)CCCCCC[N+](C)(C)CC(C)(C)CN1C(=O)c3ccc(C)cc3C1=O)C2=O`, the pKA was found to be 7.21. The same measure for `Cc1ccc2c(c1)C(=O)N(CCC[N+](C)(C)CCCCCC[N+](C)(C)CC(C)(C)CN1C(=O)c3ccc(C)cc3C1=O)C2=O`: 7.41. In turn, `Cc1ccc2c(c1)C(=O)N(CCC[N+](C)(C)CCCCCC[N+](C)(C)CCCN1C(=O)c3ccc(C)cc3C1=O)C2=O` returned a pKA of 7.08. The same measure for `Cc1ccc2c(c1)C(=O)N(CCC[N+](C)(C)CCCCCC[N+](C)(C)CC(C)(C)CN1C(=O)c3ccccc3C1=O)C2=O`: 7.2; for `Cc1ccc2c(c1)C(=O)N(CC(C)(C)C[N+](C)(C)CCCCCC[N+](C)(C)CCCN1C(=O)c3ccccc3C1=O)C2=O`: 7.26.

The values are drawn from ChEMBL document CHEMBL1135441, “Elevation of ligand binding to muscarinic M(2) acetylcholine receptors by bis(ammonio)alkane-type allosteric modulators” (J Med Chem, 2002).
